From US20230152325A1, “Active Alpha-5-Beta-1 Integrin As A Biomarker For Enhancing Tumor Treatment Efficacy” (Institute For Cancer Research d/b/a The Research Institute …, priority 2016, published 2023) come the findings set out here.

Test [1] concerns naïve pancreatic fibroblasts cultured within D-ECM. As to the kind of experiment: ECM prompted myofibroblastic maintenance (α-SMA / F-actin immunofluorescence), PDAC model. The class given is cell-based, human. The conditions noted are these: for α-SMA expression, Median / α-SMA stress fiber localization, Median: normalized to untreated D-ECM = 1. The procedure:
(§1) ECM prompted myofibroblastic maintenance. Human naïve or assorted murine fibroblasts were incubated for 45 minutes prior to overnight culturing within assorted ECMs, prepared as above, in the presence or absence of 50 μg/ml SNAKA51, 60 μg/m ALULA, 250 μg/m mAb16, or BMAS diluted as instructed by the manufacturer (Millipore, Temecula, Calif.), IgG control, DMSO or small molecule inhibitors FAK (PF573,228) and SRC family kinases (PP2). ECM-induced phenotypes were assessed via RT-qPCR, Western Blot or immunofluorescence.
(§2) Naïve/innate PDAC and RCC patient harvested fibroblasts were cultured overnight within normal (N-ECM) vs. desmoplastic (D-ECM or DECMs that were produced in the presence or absence of TGFβ1-receptor inhibition (D+TGFβi) or vehicle control (D+DMSO). Alternatively, naïve cells cultured within D-ECMs were treated with either TGFβ1-receptor inhibitor (TGFβ-i), vehicle (DMSO), functional blocking antibodies anti-αvβ5 integrin (alula, αvβ5-i), anti-α5β1 integrin (mAb16, α5β1-i), combinations of both functional blocking antibodies (β5-i+α5-i), functional stabilizing anti α5β1 integrin (SNAKA51; α5β1-act) or non-immunized isotypic antibodies (IgG). All samples were subjected to indirect immunofluorescent labeling of desmoplastic marker α-SMA and counterstained with fluorescently labeled phalloidin to detect actin stress fibers (F-actin) and determine the co-localization ratio. Monochromatic “heat map” images (see, FIG. 2A) represent α-SMA intensity values. A 255 tones intensity scale bar is shown to the right. A summary of all measured values is graphed in FIG. 2B. Additional monochromatic images indicative of double labeled staining for α-SMA and F-actin are in FIG. 2C while levels of total α-SMA localized at corresponding stress fibers are plotted in FIG. 2D. Untreated D-ECM conditions were included in all experiments summarized in this figure and serve as normalization (1 arbitrary unit; a.u.) controls. Matching values including statistical significances are listed in accompanying Table 1. All scale bars represent 50 μm. TGFβ activity was needed to maintain functional D-ECM production but was dispensable when testing D-ECM induced responses, while the later were obstructed by αvβ5 integrin inhibition or active α5β1 integrin stabilization.

The subject of test [2] is naïve renal fibroblasts cultured within D-ECM. In words: ECM prompted myofibroblastic maintenance (α-SMA / F-actin immunofluorescence), RCC model. The test is classed as cell-based, human. The conditions noted are these: for α-SMA expression, Median / α-SMA stress fiber localization, Median: normalized to untreated D-ECM = 1. The procedure: as §1, §2
The subject of test [3] is murine fibroblasts cultured in mD-ECM. As to the kind of experiment: mD-ECM induced myofibroblastic activation of murine fibroblasts (stress fiber α-SMA). The conditions noted are these: wild type murine fibroblasts in mD-ECM (80% untreated). The test is classed as cell-based. On the procedure:
as §1
FIGS. 3A through 3H show FAK independent α5β1 integrin activity negatively regulates D-ECM-induced desmoplastic activation. […]

In test [4] the test system is PDAC desmoplastic fibroblasts (D-ECM production). In words: ECM fiber orientation analysis of D-ECM produced by PDAC-associated fibroblasts. The class given is cell-based, human. On the procedure: Un-extracted 3D cultures were either processed for phenotypic characterization, ECM alignment measurements, or decellularized to assess maintenance of myofibroblastic phenotype. ECM fiber orientation analysis. Fibronectin channel monochromatic images were analyzed via Imager OrientationJ plugin. Numerical outputs were normalized by setting mode angles to 0° and correcting angle spreads to fluctuate between −90° and 90°. Angle spreads for each experimental condition, corresponding to a minimum of three experimental repetitions and five image acquisitions per condition were plotted and their standard deviations calculated. The percentage of fibers oriented between −15° and 15° was determined for each normalized image-obtained data. FIGS. 1A through 1E show desmoplastic (D)-ECM remodeling by TGFβ-blockage bestows normal (N)-ECM-like phenotypes. Fibroblasts were isolated from pancreatic ductal adenocarcinoma (PDAC) and renal cell carcinoma (RCC) surgical samples and their ECM producing phenotypes were assessed prior to ECM decellularization via fibroblastic extraction. […] Complementary low/heterogeneous vs. high/organized α-SMA levels, with heterogeneous/round vs. elongated/spindled cell nuclei, and disorganized/woven vs. parallel/aligned ECM fibers are evident in the representative images. […] Scale bars represent 50 μm.

Test [5] has as its system RCC desmoplastic fibroblasts (D-ECM production). As to the kind of experiment: ECM fiber orientation analysis of D-ECM produced by RCC-associated fibroblasts. The class given is cell-based, human. From the text:
(§3) Preparation of fibroblasts-derived 3D ECMs. Extracellular matrices (ECMs) were obtained in the presence or absence of TGFβ1R small molecule inhibitor SB431542, DMSO, conformation-dependent anti-active α5 integrin functional antibody (SNAKA51), functional-blocking anti αvβ5 integrin (ALULA), or species matched non-immunized isotypic antibodies. Un-extracted 3D cultures were either processed for phenotypic characterization, ECM alignment measurements, or decellularized to assess maintenance of myofibroblastic phenotype.
ECM fiber orientation analysis. Fibronectin channel monochromatic images were analyzed via Imager OrientationJ plugin. […] Angle spreads for each experimental condition, corresponding to a minimum of three experimental repetitions and five image acquisitions per condition were plotted and their standard deviations calculated. The percentage of fibers oriented between −15° and 15° was determined for each normalized image-obtained data.
FIGS. 1A through 1E show desmoplastic (D)-ECM remodeling by TGFβ-blockage bestows normal (N)-ECM-like phenotypes. Fibroblasts were isolated from pancreatic ductal adenocarcinoma (PDAC) and renal cell carcinoma (RCC) surgical samples and their ECM producing phenotypes were assessed prior to ECM decellularization via fibroblastic extraction. […]

In test [6] the test system is TGFβ levels stored within ECMs. In words: TGFβ protein levels in 3D unextracted culture lysates by ELISA. The test is classed as cell-based, human. The conditions noted are these: inhibitor used during D-ECM production; <0.0001. The source says:
(§4) FIGS. 7A through 7F show characterization of human fibroblastic cells isolated from PDAC and RCC surgical samples. […] Isolated cells were probed for desmoplastic markers α-SMA and palladin while Panc1 (a pancreatic cancer cell line) cells were used as epithelial to mesenchyme […] (EMT) controls known to express both epithelial and mesenchymal markers. Assorted markers are shown in white while counterstained Hoechst identified nuclei are shown in yellow. […] TGFβ inhibition causes disorganization of desmoplastic and ablation of normal ECMs. […] Data were normalized to total protein concentration and to D-ECM readouts; results are expressed as arbitrary units (A.U.). […] All scale bars represent 50 μm.

In test [7] the test system is normal fibroblasts (N-ECM assembly). As to the kind of experiment: N-ECM assembly by normal fibroblasts under TGFβ1-receptor blockage. The test is classed as cell-based, human. The conditions noted are these: blockage of TGFβ signaling during ECM production.
Excerpt: as §3, §4

Where [8] appears, read: PDAC, naïve fibroblasts plated in D-ECM in presence of the agent.
[9] abbreviates: RCC, naïve fibroblasts plated in D-ECM in presence of the agent.
Where [10] appears, read: SB-431542 during D-ECM production.
[11] abbreviates: PDAC, naïve cells within D-ECM treated overnight.
Setting [12] is: PDAC, naïve fibroblasts in D-ECM that was produced in presence of TGFβ1-receptor inhibitor.
[13] abbreviates: RCC, naïve cells within D-ECM treated overnight.
[14] abbreviates: RCC, naïve fibroblasts in D-ECM that was produced in presence of TGFβ1-receptor inhibitor.

Turning to `CS(=O)(=O)c1cccc(CNc2nc(Nc3ccc4c(c3)CCC(=O)N4)ncc2C(F)(F)F)c1` [PF573,228], in test [1] (setting [8]), the “α-SMA expression levels relative to untreated conditions” value is given as 17% and the “α-SMA stress fiber localization levels” value was determined as 23.5%. In test [2] (setting [9]), the “α-SMA expression levels relative to untreated conditions” value is reported as 70% and the “α-SMA stress fiber localization levels” value is 25%. The “cells undergoing myofibroblastic activation” value in test [3] was 32%.

Consider `NC(=O)c1ccc(-c2nc(-c3ccc4c(c3)OCO4)c(-c3ccccn3)[nH]2)cc1` [SB-431542], for which the “fiber alignment (fibers distributed at 15° from the mode angle)” value is 36% in test [4] (setting [10]) and 47% in test [5] (setting [10]). The “ECM fiber alignments reduced to” value in test [4] (TGFβ blockage during D-ECM production, n=21, P<0.0001) turned out to be 47%; in test [5] (TGFβ blockage during D-ECM production, n=26, P=0.0028), 51%. For the same molecule, the “reduction of TGFβ levels stored within ECMs” value in test [6] was determined as 60%. Moreover, the “de novo N-ECM assembly” value in test [7] is given as “prevented de novo N-ECM assembly”. The “stress fiber localization of α-SMA relative to the untreated D-ECM” value is 55% in test [1] (PDAC, D-ECM produced under TGFβ blockage, re-seeded with naïve fibroblasts) and 72% in test [2] (RCC, D-ECM produced under TGFβ blockage, re-seeded with naïve fibroblasts). The “α-SMA expression, Median” value in test [1] (setting [11]) worked out at 0.62 a.u; in test [1] (setting [12]), 0.73 a.u; in test [2] (setting [13]) it was 1.00 a.u; in test [2] (setting [14]), 0.41 a.u. The “α-SMA stress fiber localization, Median” value in test [1] (setting [11]) turned out to be 0.96 a.u; in test [1] (setting [12]), 0.55 a.u; in test [2] (setting [13]), 1.03 a.u; in test [2] (setting [14]), 0.72 a.u. The “D-ECM induced myofibroblastic phenotype (α-SMA expression / stress fiber localization), in words” value in test [1] (PDAC, naïve cells within D-ECM treated with the agent) was “comparable”; in test [2] (RCC, naïve cells within D-ECM treated with the agent), “comparable”. In addition, the results for the “α-SMA expression levels relative to untreated conditions” value in test [1] (setting [8]) and in test [2] (setting [9]) were 62% and 100%, respectively. Also, the “myofibroblastic phenotype induced de novo by the extracted ECM, in words” value in test [1] (naïve pancreatic fibroblasts re-seeded in D-ECM produced in presence of SB-431542) and in test [2] (naïve renal fibroblasts re-seeded in D-ECM produced in presence of SB-431542) was “comparable phenotypes” each time.
